Where two headings read alike, the source gives them in different places.
Test system: HBV (hepatitis B virus) in HepG2.2.15 cells
Assay: Cell-based anti-viral activity assay (HBV DNA in supernatant by quantitative PCR)
Description: Cell-Based Anti-Viral Activity Assay
The Invention determined the anti-HBV (hepatitis B virus) activity of compounds in HepG2.2.15 cells (Table 1).
HepG2.2.15 is a cell line stably transfected with the HBV genome. HepG2.2.15 cells were cultured in DMEM (1X) with 10% fetal bovine serum (Corning), 100 U penicillin (Gibico), 100 μg/mL streptomycin (Gibico), 250 μg/mL geneticin (Gibco) and GlutaMAXTM-I medium (Invitrogen).
HepG2.2.15 cells were seeded into 96-well plates (4×10^4 cells in 100 μL of medium per well) and incubated overnight at 37° C. The test compounds were weighed and prepared as 10 mM stock solution with DMSO. The stock solutions of the compounds were diluted by a gradient of 3.16 times with DMSO, and then diluted by a gradient of 3.16 times with medium for 50 times. Finally, the diluted compound solutions were added to the cell plate with a total volume of 200 μL and the final DMSO concentration was 1%. The 96-well culture plates loaded with drugs were transferred to an incubator at 37° C. for 5 days. […] nucleic acid releasing agent was added to 96-well PCR reaction plate, and 2 μL of cell supernatant or HBV quantitative standards were added to the corresponding Wells. Centrifuged the plates to fully mix, and incubated at room temperature for 10 min to fully release nucleic acid. Quantified HBV DNA content by fluorescent quantitative PCR (CFX Connect Real-Time System) using Sanxiang Bio hepatitis B virus fluorescent quantitative diagnostic kit.
The standard curve was established by taking the logarithm of the copy number (IU/ml) of the HBV standard sample (log 10) as the abscordinate and the corresponding CT value as the ordinate. The copy number of the sample was calculated according to the corresponding CT of the positive sample and the standard curve, and the percentage of inhibition rate was calculated as follows: • % Inhibition=100-100*(sample HBV copy number−high concentration reference compound column HBV copy number)/DMSO column HBV copy number−high concentration reference compound column HBV copy number).

[1] = 120 h, anti-HBV activity, HepG2.2.15 cells, 5 days, read-out: EC50 (HepG2.2.15)

| SMILES | EC50 [1] [nM] | EC50 (HepG2.2.15, 120 h, read-out: EC50 (HepG2.2.15, nM)) [nM] |
| --- | --- | --- |
| CCOC(=O)C1=C(CN2CCN3C(=O)N(C45CC(N6CCCC6=O)(C4)C5)C[C@@H]3C2)NC(c2nccs2)=N[C@H]1c1cccc(F)c1C [Compound 13, Ethyl (S)-4-(3-Fluoro-2-Methylphenyl)-6-(((S)-3-Oxo-2-(3-(2-Oxopyrrolidin-1-Yl)Bicyclo[1.1.1]Pentan-1-Yl) Hexahydroimidazo[1,5-a]Pyrazin-7(1H)-Yl)Methyl)-2-(Thiazol-2-Yl)-1,4-Dihydropyrimidine-5-Carboxylate] | 8 | – |
| CCOC(=O)C1=C(CN2CCN3C(=O)N(C45CC(CNS(C)(=O)=O)(C4)C5)C[C@@H]3C2)NC(c2nccs2)=N[C@H]1c1cccc(F)c1C [Compound 14, Ethyl (S)-4-(3-Fluoro-2-Methylphenyl)-6-(((S)-2-(3-(Methylsulfonamidomethyl)Bicyclo[1.1.1]Pentan-1-Yl)-3-Oxohexahydroimidazo[1,5-a]Pyrazin-7(1H)-Yl)Methyl)-2-(Thiazol-2-Yl)-1,4-Dihydropyrimidine-5-Carboxylate] | 4 | – |
| CCOC(=O)C1=C(CN2CCN3C(=O)N(C45CC(CNC(C)=O)(C4)C5)C[C@@H]3C2)NC(c2nccs2)=N[C@H]1c1cccc(F)c1C [Compound 15, ethyl (S)-6-(((S)-2-(3-(Acetamidomethyl)Bicyclo[1.1.1]Pentan-1-Yl)-3-Oxohexahydroimidazo[1,5-a]Pyrazin-7(1H)-Yl)Methyl)-4-(3-Fluoro-2-Methylphenyl)-2-(Thiazol-2-Yl)-1,4-Dihydropyrimidine-5-Carboxylate] | 4 | – |
| CCOC(=O)C1=C(CN2CCN3C(=O)N(C45CC(CP(=O)(OCC)OCC)(C4)C5)C[C@@H]3C2)NC(c2nccs2)=N[C@H]1c1cccc(F)c1C [Compound 16, Ethyl (S)-6-(((S)-2-(3-((Diethoxyphosphoryl)Methyl)Bicyclo[1.1.1]Pentan-1-Yl)-3-Oxohexahydroimidazo[1,5-a]Pyrazin-7(1H)-Yl)Methyl)-4-(3-Fluoro-2-Methylphenyl)-2-(Thiazol-2-Yl)-1,4-Dihydropyrimidine-5-Carboxylate] | – | 9 |
| CCOC(=O)C1=C(CN2CCN3C(=O)N(C45CC(N6CCCS6(=O)=O)(C4)C5)C[C@@H]3C2)NC(c2nccs2)=N[C@H]1c1cccc(F)c1C [Compound 19, Ethyl (S)-6-(((S)-2-(3-(1,1-Dioxidoisothiazolidin-2-Yl)Bicyclo[1.1.1]Pentan-1-Yl)-3-Oxohexahydroimidazo[1,5-a]Pyrazin-7(1H)-Yl)Methyl)-4-(3-Fluoro-2-Methylphenyl)-2-(Thiazol-2-Yl)-1,4-Dihydropyrimidine-5-Carboxylate] | 3 | – |
| CCOC(=O)C1=C(CN2CCN3C(=O)N(C45CC(CC#N)(C4)C5)C[C@@H]3C2)NC(c2nccs2)=N[C@H]1c1cccc(F)c1C [Compound 20, Ethyl (S)-6-(((S)-2-(3-(Cyanomethyl)Bicyclo[1.1.1]Pentan-1-Yl)-3-Oxohexahydroimidazo[1,5-a]Pyrazin-7 (1H)-Yl)Methyl)-4-(3-Fluoro-2-Methylphenyl)-2-(Thiazol-2-Yl)-1,4-Dihydropyrimidine-5-Carboxylate] | 3 | – |
| CCOC(=O)C1=C(CN2CCN3C(=O)N(C45CC(NS(N)(=O)=O)(C4)C5)C[C@@H]3C2)NC(c2nccs2)=N[C@H]1c1cccc(F)c1C [Compound 21, Ethyl (S)-4-(3-Fluoro-2-Methylphenyl)-6-(((S)-3-Oxo-2-(3-(Sulfamoylamino)Bicyclo[1.1.1]Pentan-1-Yl)Hexahydroimidazo[1,5-a]Pyrazin-7(1H)-Yl)Methyl)-2-(Thiazol-2-Yl)-1,4-Dihydropyrimidine-5-Carboxylate] | 15 | – |
| CCOC(=O)C1=C(CN2CCN3C(=O)N(C45CC(CNS(=O)(=O)C6CC6)(C4)C5)C[C@@H]3C2)NC(c2nccs2)=N[C@H]1c1cccc(F)c1C [Compound 23] | 4 | – |
| CCOC(=O)C1=C(CN2CCN3C(=O)N(C45CC(CNS(N)(=O)=O)(C4)C5)C[C@@H]3C2)NC(c2nccs2)=N[C@H]1c1cccc(F)c1C [Compound 24, Ethyl (S)-4-(3-Fluoro-2-Methylphenyl)-6-(((S)-3-Oxo-2-(3-((Sulfamoylamino)Methyl)Bicyclo[1.1.1]Pentan-1-Yl)Hexahydroimidazo[1,5-a]Pyrazin-7(1H)-Yl)Methyl)-2-(Thiazol-2-Yl)-1,4-Dihydropyrimidine-5-Carboxylate] | 9 | – |
| CCOC(=O)C1=C(CN2CCN3C(=O)N(C45CC(CN6CCCC6=O)(C4)C5)C[C@@H]3C2)NC(c2nccs2)=N[C@H]1c1cccc(F)c1C [Compound 25, Ethyl (S)-4-(3-Fluoro-2-Methylphenyl)-6-(((S)-3-Oxo-2-(3-((2-Oxopyrrolidin-1-Yl)Methyl)Bicyclo[1.1.1]Pentan-1-Yl)Hexahydroimidazo[1,5-a]Pyrazin-7(1H)-Yl)Methyl)-2-(Thiazol-2-Yl)-1,4-Dihydropyrimidine-5-Carboxylate] | 2 | – |
| CCOC(=O)C1=C(CN2CCN3C(=O)N(C45CC(C(=O)NC)(C4)C5)C[C@@H]3C2)NC(c2nccs2)=N[C@H]1c1cccc(F)c1C [Compound 26, Ethyl (S)-4-(3-Fluoro-2-Methylphenyl)-6-(((S)-2-(3-(Methylcarbamoyl)Bicyclo[1.1.1]Pentan-1-Yl)-3-Oxohexahydroimidazo[1,5-a]Pyrazin-7(1H)-Yl)Methyl)-2-(Thiazol-2-Yl)-1,4-Dihydropyrimidine-5-Carboxylate] | 5 | – |
| CCOC(=O)C1=C(CN2CCN3C(=O)N(C45CC(C(=O)N6CCOCC6)(C4)C5)C[C@@H]3C2)NC(c2nccs2)=N[C@H]1c1cccc(F)c1C [Compound 27, Ethyl (S)-4-(3-Fluoro-2-Methylphenyl)-6-(((S)-2-(3-(Morpholine-4-Carbonyl)Bicyclo[1.1.1]Pentan-1-Yl)-3-Oxohexahydroimidazo[1,5-a]Pyrazin-7(1H)-Yl)Methyl)-2-(Thiazol-2-Yl)-1,4-Dihydropyrimidine-5-Carboxylate] | 6 | – |
| CCOC(=O)C1=C(CN2CCN3C(=O)N(C45CC(C(C)C(=O)O)(C4)C5)C[C@@H]3C2)NC(c2nccs2)=N[C@H]1c1cccc(F)c1C (stereo partly drawn) [Compound 30, 2-(3-((S)-7-(((S)-5-(Ethoxycarbonyl)-6-(3-Fluoro-2-Methylphenyl)-2-(Thiazol-2-Yl)-3,6-Dihydropyrimidin-4-Yl)Methyl)-3-Oxohexahydroimidazo[1,5-a]Pyrazin-2(3H)-Yl)Bicyclo[1.1.1]Pentan-1-Yl)Propanoic Acid] | 11 | – |
| CCOC(=O)C1=C(CN2CCN3C(=O)N(C45CC(CO)(C4)C5)C[C@@H]3C2C(=O)OCC)NC(c2nccs2)=N[C@H]1c1cccc(F)c1C (stereo partly drawn) [Compound 31, Ethyl (8aR)-7-(((S)-5-(Ethoxycarbonyl)-6-(3-Fluoro-2-Methylphenyl)-2-(Thiazol-2-Yl)-3,6-Dihydropyrimidin-4-Yl)Methyl)-2-(3-(Hydroxymethyl)Bicyclo[1.1.1]Pentan-1-Yl)-3-Oxooctahydroimidazo[1,5-a]Pyrazine-8-Carboxylate] | 25 | – |
| CCOC(=O)C1=C(CN2CCN3C(=S)N(C45CC(C(=O)O)(C4)C5)C[C@@H]3C2)NC(c2nccs2)=N[C@H]1c1cccc(F)c1C [Compound 32, 3-((S)-7-(((S)-5-(Ethoxycarbonyl)-6-(3-Fluoro-2-Methylphenyl)-2-(Thiazol-2-Yl)-3,6-Dihydropyrimidin-4-Yl)Methyl)-3-Thioxohexahydroimidazo[1,5-a]Pyrazin-2(3H)-Yl)Bicyclo[1.1.1]Pentane-1-Carb Oxylic Acid] | 30 | – |
| CCOC(=O)C1=C(CN2CCN3C(=O)N(C45CC(CC(=O)O)(C4)C5)C[C@@H]3C2)NC(c2nccs2)=N[C@H]1c1cccc(F)c1Cl [Compound 34, 2-(3-((S)-7-(((R)-6-(2-Chloro-3-Fluorophenyl)-5-(Ethoxycarbonyl)-2-(Thiazol-2-Yl)-3,6-Dihydropyrimidin-4-Yl)Methyl)-3-Oxohexahydroimidazo[1,5-a]Pyrazin-2(3H)-Yl)Bicyclo[1.1.1]Pentan-1-Yl)Acetic Acid] | 22 | – |
| CCOC(=O)C1=C(CN2CCN3C(=O)N(C45CC(CC(=O)O)(C4)C5)C[C@@H]3C2)NC(c2nccs2)=N[C@H]1c1ccc(F)c(F)c1 [Compound 36] | 48 | – |
| COC(=O)C1=C(CN2CCN3C(=O)N(C45CC(CC(=O)O)(C4)C5)C[C@@H]3C2)NC(c2nccs2)=N[C@H]1c1ccc(F)cc1Br [Compound 39, 2-(3-((S)-7-(((R)-6-(2-Bromo-4-Fluorophenyl)-5-(Methoxycarbonyl)-2-(Thiazol-2-Yl)-3,6-Dihydropyrimidin-4-Yl)Methyl)-3-Oxohexahydroimidazo[1,5-a]Pyrazin-2 (3H)-Yl)Bicyclo[1.1.1]Pentane-1-Yl)Acetic Acid] | 32 | – |
| CCOC(=O)C1=C(CN2CCN3C(=O)N(C45CC(CC(C)(C)C(=O)O)(C4)C5)C[C@@H]3C2)NC(c2nccs2)=N[C@H]1c1ccc(F)cc1Cl [Compound 40] | 12 | – |
